Test results from the NIST ThermoML archive (doi:10.1016/j.fluid.2008.07.012).
± gives the expanded uncertainty stated by the source.

Details: Crystal; DTA

Compound | Normal melting temperature [°C]
CCCC(=O)O[C@H]1CC[C@@]2(C)C(=CC[C@H]3[C@@H]4CC[C@H]([C@H](C)CCCC(C)C)[C@@]4(C)CC[C@@H]32)C1 [3β-butanoyloxycholest-5-ene] | 99 ± 1
CC(C)CCC[C@@H](C)[C@H]1CC[C@H]2[C@@H]3CC=C4C[C@@H](OC(=O)c5ccccc5)CC[C@]4(C)[C@H]3CC[C@]12C [3β-benzoyloxycholest-5-ene] | 150 ± 1
